The test system of this assay is L1210 leukemia ip in BDF1 mice, survival T/C. As to the kind of experiment: NCI In Vivo Anticancer Drug Screen. Data for tumor model L1210 Leukemia (intraperitoneal) in B6D2F1 (BDF1) mice. The note with it: endpoint: mean survival time, higher = longer survival. The essentials:
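Antitumor effect is assessed in tumor-bearing animals. Survival in the compound arm is compared with a vehicle-dosed control arm and expressed as their quotient.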

Where [1] appears, read: dose: 100.0 mg/kg/injection, schedule: Q01DX001 (ip), vehicle: acetone.
[2] abbreviates: dose: 100.0 mg/kg/injection, schedule: Q04DX003 (ip), vehicle: saline.
Setting [3] is: dose: 200.0 mg/kg/injection, schedule: Q01DX001 (ip), vehicle: acetone.
Setting [4] is: dose: 200.0 mg/kg/injection, schedule: Q04DX003 (ip), vehicle: saline.
Where [5] appears, read: dose: 400.0 mg/kg/injection, schedule: Q01DX001 (ip), vehicle: acetone.
The mark [6] stands for this setting: dose: 400.0 mg/kg/injection, schedule: Q04DX003 (ip), vehicle: saline.

From PubChem BioAssay AID248 (DTP/NCI, 2004) come the findings set out here.

Several values for one entry are separate records, joined by “and”; a condition that tells them apart may be missing. Identical values can stand only once. Inconclusive results and toxic doses are left out.

Regarding `CC(C(=O)O)N(C)C(=O)OCc1ccccc1` (configuration not stated), the T/C by setting is: under setting [1], 103 % of control; under setting [2], 105 % of control; under setting [3], 101 % of control; under setting [4], 90 % of control; under setting [5], 96 % of control; under setting [6], 92 % of control.

Take `O=C1c2ccccc2-c2ccc(N=C(NO)C(F)(F)F)cc21`: the T/C by setting is: (dose: 100.0 mg/kg/injection, schedule: Q01DX001 (ip), vehicle: carboxymethylcellulose (CMC)) 118 % of control; (dose: 200.0 mg/kg/injection, schedule: Q01DX001 (ip), vehicle: carboxymethylcellulose (CMC)) 98 % of control; (dose: 400.0 mg/kg/injection, schedule: Q01DX001 (ip), vehicle: carboxymethylcellulose (CMC)) 98 % of control.

For `CC(C)CC(=O)C=C(C(F)(F)F)C(F)(F)F`, the T/C by setting is: (dose: 100.0 mg/kg/injection, schedule: Q01DX001 (ip), vehicle: saline with Tween-80) 91 % of control; (dose: 200.0 mg/kg/injection, schedule: Q01DX001 (ip), vehicle: saline with Tween-80) 96 % of control; (dose: 400.0 mg/kg/injection, schedule: Q01DX001 (ip), vehicle: saline with Tween-80) 93 % of control.

As for `COC(=O)C(C)=O`, the T/C is 103 % of control (dose: 100.0 mg/kg/injection, schedule: Q01DX009 (ip), vehicle: saline with Tween-80); 101 % of control (dose: 200.0 mg/kg/injection, schedule: Q01DX009 (ip), vehicle: saline with Tween-80); 98 % of control (dose: 400.0 mg/kg/injection, schedule: Q01DX009 (ip), vehicle: saline with Tween-80).

With `CCN(CC)CCCNc1c2ccccc2nc2ccccc12`, the T/C is, setting by setting: (dose: 5.0 mg/kg/injection, schedule: Q01DX001 (ip), vehicle: saline) 113 % of control; (dose: 10.0 mg/kg/injection, schedule: Q01DX001 (ip), vehicle: saline) 104 % of control; (dose: 20.0 mg/kg/injection, schedule: Q01DX001 (ip), vehicle: saline) 115 % of control; (dose: 40.0 mg/kg/injection, schedule: Q01DX001 (ip), vehicle: saline) 87 % of control.

With `CN(C)C(=O)NCC[N+](C)(C)C`, the T/C was 100 % of control (dose: 100.0 mg/kg/injection, schedule: Q01DX009 (ip), vehicle: saline); 99 % of control under setting [2]; 106 % of control (dose: 200.0 mg/kg/injection, schedule: Q01DX009 (ip), vehicle: saline); 92 % of control under setting [4]; 97 % of control (dose: 400.0 mg/kg/injection, schedule: Q01DX009 (ip), vehicle: saline); 94 % of control under setting [6].

Take `Nc1cncc2ncc(-c3ccc(Cl)c(Cl)c3)nc12`: the T/C is, setting by setting: (dose: 50.0 mg/kg/injection, schedule: Q01DX001 (ip), vehicle: other) 98 % of control; (dose: 100.0 mg/kg/injection, schedule: Q01DX001 (ip), vehicle: other) 98 % of control; (dose: 200.0 mg/kg/injection, schedule: Q01DX001 (ip), vehicle: other) 98 % of control; (dose: 400.0 mg/kg/injection, schedule: Q01DX001 (ip), vehicle: other) 100 % of control.

`NCCCC(=O)NCCCCCCCCCCNC(=O)CCCN`: the T/C (dose: 3.0 mg/kg/injection, schedule: Q01DX012 (ip), vehicle: saline) was 105 % of control; the T/C (dose: 10.0 mg/kg/injection, schedule: Q01DX012 (ip), vehicle: saline) is 108 % of control; the T/C (dose: 30.0 mg/kg/injection, schedule: Q01DX012 (ip), vehicle: saline) was 103 % of control.

For the compound `COC(=O)NCC1OC(n2cnc3c(N)ncnc32)C(O)C1O` (configuration not stated), the T/C reads like this: (dose: 100.0 mg/kg/injection, schedule: Q01DX005 (ip), vehicle: saline) 92 % of control; (dose: 200.0 mg/kg/injection, schedule: Q01DX005 (ip), vehicle: saline) 94 % of control.

As to `O=S(=O)(CC(O)(c1ccccc1)c1ccccc1)CC(O)(c1ccccc1)c1ccccc1`, the T/C was 93 % of control (dose: 50.0 mg/kg/injection, schedule: Q01DX001 (ip), vehicle: saline); 91 % of control (dose: 100.0 mg/kg/injection, schedule: Q01DX001 (ip), vehicle: saline); 93 % of control (dose: 200.0 mg/kg/injection, schedule: Q01DX001 (ip), vehicle: saline); 87 % of control (dose: 400.0 mg/kg/injection, schedule: Q01DX001 (ip), vehicle: saline).

Consider `COc1ccc(CCCCO)cc1`, for which the T/C is 96 % of control under setting [1], 102 % of control under setting [3] and 86 % of control under setting [5].

On to `Cc1ccc(NS(=O)(=O)c2ccc(Cl)cc2)cc1Cl`, for which the T/C (dose: 25.0 mg/kg/injection, schedule: Q01DX009 (ip), vehicle: Klucel (hydroxypropylcellulose) (HPC)) is 94 % of control; the T/C (dose: 50.0 mg/kg/injection, schedule: Q01DX009 (ip), vehicle: Klucel (hydroxypropylcellulose) (HPC)) was 99 % of control; the T/C (dose: 100.0 mg/kg/injection, schedule: Q01DX009 (ip), vehicle: Klucel (hydroxypropylcellulose) (HPC)) is 96 % of control; the T/C (dose: 100.0 mg/kg/injection, schedule: Q04DX003 (ip), vehicle: Klucel (hydroxypropylcellulose) (HPC)) was 106 % of control; the T/C (dose: 200.0 mg/kg/injection, schedule: Q01DX009 (ip), vehicle: Klucel (hydroxypropylcellulose) (HPC)) was 99 % of control; the T/C (dose: 200.0 mg/kg/injection, schedule: Q04DX003 (ip), vehicle: Klucel (hydroxypropylcellulose) (HPC)) is 96 % of control. Also, the T/C reads like this: (dose: 400.0 mg/kg/injection, schedule: Q01DX009 (ip), vehicle: Klucel (hydroxypropylcellulose) (HPC)) 88 % of control; (dose: 400.0 mg/kg/injection, schedule: Q04DX003 (ip), vehicle: Klucel (hydroxypropylcellulose) (HPC)) 100 % of control.

Turning to `Nc1ncnc2c1ncn2C(C=O)OC(C=O)CO` (configuration not stated), the T/C runs as follows: (dose: 4.37 mg/kg/injection, schedule: Q01DX009 (ip), vehicle: water) 123 % of control; (dose: 4.37 mg/kg/injection, schedule: Q01DX Z (ip), vehicle: water) 123 % of control; (dose: 8.75 mg/kg/injection, schedule: Q01DX Z (ip), vehicle: water) 157 % of control; (dose: 8.8 mg/kg/injection, schedule: Q01DX Z (ip), vehicle: carboxymethylcellulose (CMC)) 115 % of control; (dose: 13.3 mg/kg/injection, schedule: Q01DX Z (ip), vehicle: carboxymethylcellulose (CMC)) 121 % of control; (dose: 17.5 mg/kg/injection, schedule: Q01DX009 (ip), vehicle: water) 172 % of control. For the same compound, the T/C by setting is: (dose: 17.5 mg/kg/injection, schedule: Q01DX Z (ip), vehicle: water) 172 % of control; (dose: 30.0 mg/kg/injection, schedule: Q01DX Z (ip), vehicle: carboxymethylcellulose (CMC)) 116 % of control; (dose: 35.0 mg/kg/injection, schedule: Q01DX Z (ip), vehicle: water) 92 % of control; (dose: 42.0 mg/kg/injection, schedule: Q01DX Z (oral), vehicle: carboxymethylcellulose (CMC)) 115 % of control; (dose: 45.0 mg/kg/injection, schedule: Q01DX Z (ip), vehicle: carboxymethylcellulose (CMC)) 100 % of control and 101 % of control; (dose: 64.0 mg/kg/injection, schedule: Q01DX Z (oral), vehicle: carboxymethylcellulose (CMC)) 107 % of control. Further, the T/C was 105 % of control and 121 % of control (dose: 68.0 mg/kg/injection, schedule: Q01DX Z (ip), vehicle: carboxymethylcellulose (CMC)); 109 % of control (dose: 79.0 mg/kg/injection, schedule: Q01DX009 (oral), vehicle: saline); 109 % of control (dose: 96.0 mg/kg/injection, schedule: Q01DX Z (oral), vehicle: carboxymethylcellulose (CMC)); 109 % of control (dose: 119.0 mg/kg/injection, schedule: Q01DX009 (oral), vehicle: saline); 96 % of control (dose: 144.0 mg/kg/injection, schedule: Q01DX Z (oral), vehicle: carboxymethylcellulose (CMC)); 112 % of control (dose: 178.0 mg/kg/injection, schedule: Q01DX009 (oral), vehicle: saline).
